Data on three compounds can be found in PMC4591660 (Toxins, 2015).

“Also recorded” adds a separate entry of the source. Where two headings read alike, the source gives them in different places.

One assay deals with T1, mTRPV1 (Mus musculus, UniProt Q704Y3).
T1 construct: expressed in transfected cells; host or cells: HEK293T
Format: cell-based. As to the method: (§1) Thus, electrophysiological tests on transient transfected TRPV1 were performed. […] To our knowledge, HEK293T cells have been reported to endogenously express acid-sensing ion channels (ASICs).
(§2) All patch clamp recordings were carried out at temperature 20 °C using an EPC-10 amplifier (HEKA Electronik, Lambrecht, Germany) according to the previous report. Recording pipettes were made from borosilicate glass capillary tubing, and their resistances were 3–5 MΩ when filled with internal solution. For mKv1.1 and mKv1.3 current recordings, the cells were held at −80 mV for 5 min after the whole-cell construction was established. All of the potassium current traces were elicited by a 300-ms depolarizing potential of 0 mV from a holding potential of −80 mV. The standard pipette solution contained (in mM): 140 KF, 4 MgCl2, 5 ATP-Na, 1 EGTA, and 10 HEPES, pH 7.3. The standard bath solution contained (in mM): 137 NaCl, 5.9 KCl, 2.2 CaCl2, 1.2 MgCl2, 14 glucose, and 10 HEPES, pH 7.3. For mice TRPV1 channel recordings, the pipette and bathing solution contained (in mM): 130 NaCl, 0.2 EDTA, and 3 HEPES, pH 7.2.
(§3) Experimental data of electrophysiological recordings were acquired and analyzed by using the Pulse program and Igor Pro. The data obtained in experiments involving animals were analyzed by GraphPad Prism 5 (GraphPad Software, Inc., San Diego, CA, USA). All of the data points are shown as the means ± S.E. n is presented as the number of experiments. Statistical analysis was carried out by Student’s t test, and * indicated a significant difference (p < 0.01).

In assay [1] the test system is DRG neurons of TRPV1 KO mice. The class given is cell-based, mouse. As to the method:
(§4) DRG neurons from WT or TRPV1 KO mice were acutely dissociated and maintained in short-term primary culture as previously described. DRGs were incubated in 5% CO2/95% air at 37 °C for 1–4 h prior to patch-clamp experiments. HEK293T cells were used for mKv1.1 or mKv1.3 expression. Cells were grown under standard tissue culture conditions (5% CO2, 37 °C) in DMEM supplemented with 10% fetal bovine serum. Cells were transfected with DNA mixture (channel constructs and a green fluorescent protein (GFP) reporter plasmid) using lipofectamine 2000 transfection reagent (Invitrogen, Carlsbad, CA, USA) following the manufacturer’s instructions and used for electrophysiology 24–48 h after transfection. Cells with GFP fluorescence were selected for patch-clamp recordings […] after transfection.
as §2
(§5) Experimental data of electrophysiological recordings were acquired and analyzed by using the Pulse program and Igor Pro. The data obtained in experiments involving animals were analyzed by GraphPad Prism 5 (GraphPad Software, Inc., San Diego, CA, USA). All of the data points are shown as the means ± S.E. n is presented as the number of experiments. […]

Another assay concerns DRG neurons of WT mice. The class given is cell-based, mouse. The note with it: 10 µM; DRG neurons 20 µm ≤ cell ≤ 35 µm; 20 °C. As to the method:
as §4, §2, §5

The test system of the next assay is native HEK293T cells. Format: cell-based. The note with it: negative for TRPV1, 20 °C, endogenous ASICs. As to the method:
as §1, §2, §3

A further assay has as its system WT mice. The class given is in vivo, C57BL/6J. To be noted: 10 μL intraplantar, left hind paw, 30 min recording, n = 10; for pain behavior (duration of paw licking/biting): 500 µM, vs saline; for pain behavior (paw licking), dose-response: different doses. As to the method: (§6) Mice, C57BL/6J, were used as wild type (WT) in these experiments. TRPV1-KO mice were purchased from Model Animal Research Center of Nanjing University, China. All the experiments using animals were carried out in accordance with recommendations in the Guide for the Care and Use of Laboratory Animals of Kunming Institute of Zoology, Chinese Academy of Sciences. Experimental protocols using animals in this work were approved by the Institutional Animal Care and Use Committees at Kunming Institute of Zoology, Chinese Academy of Sciences (2014-204). All efforts were made to reduce the number of animals used and to minimize the suffering of animals.
(§7) Control mice were injected with the same volume of saline. Immediately after injection, the time of paw licking was recorded by digital video camera for 30 min.
as §3

The subject of another assay is TRPV1. To be noted: cited from earlier work.
The subject of another assay is TRPV1 KO mice. The class given is in vivo. The note with it: 500 µM, 10 μL intraplantar, left hind paw; 30 min recording; n = 10; vs saline. The procedure: as §6, §7, §3
A further assay has as its system Kv1.1. Also noted: method as in PMID 11173083, PMID 10565809. To be noted: ref [37],[38]; cited from earlier work.
The next assay concerns Kv1.3. Also noted: method as in PMID 11173083, PMID 10565809. To be noted: ref [37],[38]; cited from earlier work.

T1 sequence (Q704Y3 whole entry): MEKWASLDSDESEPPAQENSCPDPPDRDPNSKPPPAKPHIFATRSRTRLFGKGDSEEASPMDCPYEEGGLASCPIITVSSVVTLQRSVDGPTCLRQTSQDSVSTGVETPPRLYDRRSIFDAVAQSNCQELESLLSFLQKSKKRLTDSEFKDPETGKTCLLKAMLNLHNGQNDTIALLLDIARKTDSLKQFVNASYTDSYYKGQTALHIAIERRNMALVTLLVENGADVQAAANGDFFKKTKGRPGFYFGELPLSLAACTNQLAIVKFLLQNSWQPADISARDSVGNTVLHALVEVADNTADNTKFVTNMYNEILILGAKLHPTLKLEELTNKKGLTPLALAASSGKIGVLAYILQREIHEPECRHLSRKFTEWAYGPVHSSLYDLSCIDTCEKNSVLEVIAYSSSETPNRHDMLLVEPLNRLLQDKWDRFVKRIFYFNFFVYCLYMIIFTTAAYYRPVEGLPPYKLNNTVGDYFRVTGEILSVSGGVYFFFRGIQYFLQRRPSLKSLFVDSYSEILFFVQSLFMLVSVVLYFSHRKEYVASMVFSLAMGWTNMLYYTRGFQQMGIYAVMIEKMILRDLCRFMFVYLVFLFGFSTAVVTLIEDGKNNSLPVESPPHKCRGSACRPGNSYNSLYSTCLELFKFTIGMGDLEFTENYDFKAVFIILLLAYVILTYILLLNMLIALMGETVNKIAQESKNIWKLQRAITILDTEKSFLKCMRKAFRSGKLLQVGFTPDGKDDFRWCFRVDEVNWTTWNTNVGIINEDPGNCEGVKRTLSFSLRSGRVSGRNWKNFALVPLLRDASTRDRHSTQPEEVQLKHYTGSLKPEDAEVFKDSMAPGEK

Consider `NCCOB(c1ccccc1)c1ccccc1` [2APB], for which the “activation of TRPV1 (comparator agonists)” value on mTRPV1 (HEK293T expressing mTRPV1, concentration not given, 20 °C) was “potently activated TRPV1”.
On to `COc1cc(CNC(=O)CCCC/C=C/C(C)C)ccc1O` [capsaicin], for which the “normalized evoked currents, TRPV1 KO compared with WT DRG neurons” value in [1] was “significantly higher in WT than TRPV1 KO mice; also recorded: significantly lower in TRPV1 KO mice than in WT mice”. In [1] (10 µM, DRG neurons 20 µm ≤ cell ≤ 35 µm, 20 °C), the “evoked currents on DRG neurons (TRPV1 KO)” value is “not TRPV1 KO mice; also recorded: did not evoke currents”. In addition, the “evoked currents on DRG neurons (WT)” value with DRG neurons of WT mice is “effectively evoked the currents in DRG neurons of WT; also recorded: evoked the currents on DRG sensory neurons of WT mice”. Moreover, in the assay on native HEK293T cells, the “evoked currents in native HEK293T cells, ramp method” value is listed as “did not evoke the currents”. On mTRPV1, the “activation of TRPV1 (comparator agonists)” value was “potently activated TRPV1” and the “evoked currents in TRPV1-expressed HEK293T cells, ramp method” value is recorded as “evoked the currents in HEK293T cells with over-expressed TRPV1 channels”. Further, in the assay on WT mice, the “pain behavior (duration of paw licking/biting)” value is “induced pain in WT mice” and the “pain behavior (paw licking), dose-response” value is “induced acute pain in a dose dependent manner”. In the assay with TRPV1, the “agonism on TRPV1” value is “well-known agonist of TRPV1”.
On to kaliotoxin, for which the entries for the “pain behavior (duration of paw licking/biting)” value with WT mice and with TRPV1 KO mice were “unable to induce pain” and “only crude venom induced pain”, respectively. Also, the “pain behavior (paw licking), dose-response” value in the assay on WT mice is “did not induce pain”; in the assay with WT mice (listed as Kaliotoxin), “showed no significant pain behavior”. Besides, the “inhibition of Kv1.1” value with Kv1.1 was “potent inhibitor of Kv1.1 and Kv1.3”. The “inhibition of Kv1.3” value in the assay with Kv1.3 was “potent inhibitor of Kv1.1 and Kv1.3”.
